In ChEMBL document CHEMBL1157989, “Novel antioxidant compounds from tart cherries (Prunus cerasus)” (J Nat Prod, 1999):
Calls of active or inactive are those of the source. The calls are words filed in the database; no cut-off is given here.

Experiments:
[1] = Antioxidant activity against Fe2+-induced lipid peroxidation at 20 uM by fluorescence spectroscopy; format: functional
[2] = Antioxidant activity against Fe2+-induced lipid peroxidation at 100 uM by fluorescence spectroscopy; format: functional

| SMILES | Activity [1] | Activity [2] |
| --- | --- | --- |
| O=C(/C=C/c1ccc(O)c(O)c1)O[C@@H]1CC[C@@H](O)[C@H]1O | 80% |  |
| CC(C)(C)c1cc(O)ccc1O | > 90% |  |
| Cc1cc(C(C)(C)C)c(O)c(C(C)(C)C)c1 | > 90% |  |
| O=C(O)C(O)Cc1ccccc1O (racemic) |  | inactive |
| O=C(/C=C/c1ccc(O)c(O)c1)OC1[C@H](O)CC[C@@H]1O (stereo partly specified) | 80% |  |
| COC(=O)[C@]1(O)C[C@@H](O)[C@@H](O)[C@H](OC(=O)/C=C/c2ccc(O)c(O)c2)C1 | 50% |  |
